Experimental data published in patent publication US20240122872A1, “COMPOSITIONS AND METHODS FOR TREATMENT OF MICROBIAL INFECTIONS” (EpiTop, Inc., priority 2022, published 2024).
Read-outs that look alike come from different tables or passages of the source.

How the values were obtained:
HSV-1 = HSV-1 plaque assay (virus incubated with thujopsene, BS-C-1 cells); assay type: cell-based
Description: BS-C-1 African green monkey kidney cells were seeded at 2×10^5 cells/well in 24 well plates (Becton Dickinson, Torreyana, CA) and allowed to grow to confluence overnight at 37° C., 5% CO2 in Earle's MEM with 10% fetal calf serum (FCS). To examine the effects of thujopsene, 0, 0.01, and 0.02% of thujopsene were incubated with […] HSV-1 for 2 or 4 hours, at 37° C. and 5% CO2. For the plaque assay, the medium was removed and wells were overlaid with 0.5 ml 4% buffered formalin, allowed to fix for 10 minutes at room temperature. The formalin was removed and 0.5 ml 0.1% crystal violet in PBS was added to the wells for 5 minutes at room temperature. Wells were then aspirated and the air-dried for visualization of plaques.

Vaccinia virus (VV) = assay type: cell-based
coronavirus (229E-VR740) = assay: Relative gene expression of coronavirus 229E in human fibroblasts (real time RT-PCR); assay type: cell-based; conditions: 0.01% or 0.02% thujopsene, 24 hours
Description: Human fibroblasts (Atcc.org, CCL-191) were treated with coronavirus (229E) and 0.01% or 0.02% of thujopsene for 24 hours, and then RNAs were isolated and PCRs were performed. Total RNA was isolated according to manufacturer's guidelines. RNeasy Mini Kits (Qiagen, Germantown, MD) were used according to the manufacturer's protocol to isolate RNA. RNA was reverse transcribed into cDNA using SuperScript® VILO™ MasterMix according to manufacturer's protocol and DNA was isolated according to manufacturer's guidelines. cDNAs were analyzed by real time RT-PCR by using an ABI Prism 7300 sequence detector.

[1] = tested on: Streptococcus pyogenes (ATCC BAA-19615); assay: Bactericidal assay (colony count), S. pyogenes; conditions: 2 hours at 37° C.; concentration as low as 0.0001%; thujopsene (0.001%), totarol (0.0001%) or combination
[2] = tested on: coronavirus 229E (VR-740); assay: Coronavirus 229E-mediated destruction of human fibroblasts (microscopy); assay type: cell-based; conditions: 229E 0.05 pfu/cell, 3 days or 5 days
Description: Normal human lung fibroblst (ATCC.org, CCL-191) were seeded at 1×10^5 cells/well in 24 well plates (Becton Dickinson, Torreyana, CA) and allowed to grow to confluence overnight at 37° C., 5% CO2 in Earle's MEM with 10% fetal calf serum (FCS). To examine whether thujopsene prevents coronavirus (229E)-induced destruction of fibroblast, fibroblasts were incubated with thujopsene (0.00, 0.01 or 0.02%) and 229E (0.05 pfu/cell) for 3 days or 5 days at 37° C. and 5% CO2. Then cell images (x25 magnification) were taken with the microscopy (Leica, Wetzler, Germany).

Compound	Decrease of titers of virus (HSV-1; 2-hour incubation with 0.01% thujopsene)	Decrease of titers of virus (HSV-1; 2-hour incubation with 0.01% thujopsene (first statement))	Decrease of titers of virus (HSV-1; 4-hour incubation with 0.01% thujopsene)	Decrease of titers of virus (Vaccinia virus (VV); 2-hour incubation with 0.02% thujopsene)	Decrease of titers of virus (Vaccinia virus (VV); 4-hour incubation with 0.02% thujopsene)	Relative gene expression of 229E (coronavirus VR740) (coronavirus (229E-VR740); 0.01 pfu/cell)	Relative gene expression of 229E (coronavirus VR740) (coronavirus (229E-VR740); 0.05 pfu/cell)	Inhibition of S. Pyogenes [1]	Cellular structure of fibroblasts after treatment with coronavirus 229E ([2]; 0.01% thujopsene)	Cellular structure of fibroblasts after treatment with coronavirus 229E ([2]; 0.02% thujopsene)
CC1=CC[C@]2(C)CCCC(C)(C)[C@@]23C[C@@H]13 [thujopsene]	at least 90%	at least 50%	at least 90%	at least 25%	at least 25%	decreased in a dose-dependent manner	decreased in a dose-dependent manner	significantly inhibited	the cellular structures were maintained	the cellular structures were maintained
CC(C)c1c(O)ccc2c1CC[C@H]1C(C)(C)CCC[C@]21C [totarol]								significantly inhibited		
